The values below are quoted from earlier work in patent US20260265270A1 (priority 2023, published 2026).

In series [1] the test system is IL-23 secreted by monocytes. The conditions noted are these: after administration of the inhibitor.
Another series deals with IL-2 secreted by T cells. The conditions noted are these: after administration of the inhibitor.

The structures appear in SMILES notation.

As to `COc1ccc(C[C@H](NC(=O)[C@H](C)NC(=O)CN2CCOCC2)C(=O)N[C@@H](Cc2ccccc2)C(=O)C2(C)CO2)cc1` (stereo in doubt) [ONX0914], the “IL-23 secreted by monocytes” value in series [1] is on record as “decrease significantly”. In the series with IL-2 secreted by T cells, the “IL-2 secreted by T cells” value was “decrease significantly”.
